Measured values published in PubChem BioAssay (NCI).
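A five-concentration, 48-hour dose response in 96-well plates underlies each endpoint, interpolated linearly between surrounding concentrations. At the TGI there is no net growth.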

How the values were obtained:
Test in all cases: growth of human tumour cells (NCI), 48 h
[1] = system: OVCAR-8 ovarian
[2] = system: MALME-3M melanoma
[3] = system: UACC-62 melanoma
[4] = system: NCI-H460 lung
[5] = system: A549 NSCLC
[6] = system: RXF 393 renal
[7] = system: BT-549 breast
[8] = system: SF-268 CNS
[9] = system: SK-MEL-28 melanoma
[10] = system: HCT-116 colon
[11] = system: PC-3 prostate
[12] = system: HOP-62 NSCLC
[13] = system: SW-620 colon
[14] = system: SF-539 CNS
[15] = system: UO-31 renal
[16] = system: SK-OV-3 ovarian
[17] = system: HCC-2998 colon
[18] = system: OVCAR-4 ovarian
[19] = system: SNB-75 CNS
[20] = system: TK-10 renal
[21] = system: SNB-19 CNS
[22] = system: RPMI-8226 leukemia
[23] = system: SK-MEL-5 melanoma
[24] = system: SN12C renal
[25] = system: U251 CNS
[26] = system: T-47D breast
[27] = system: OVCAR-3 ovarian
[28] = system: SR leukemia
[29] = system: K-562 leukemia
[30] = system: MOLT-4 leukemia
[31] = system: MDA-MB-435
[32] = system: MDA-N
[33] = system: M14 melanoma
[34] = system: EKVX NSCLC
[35] = system: HS 578T breast
[36] = system: NCI-H23 lung
[37] = system: HL-60(TB) leukemia
[38] = system: ACHN renal
[39] = system: IGROV1 ovarian
[40] = system: DU-145 prostate
[41] = system: MDA-MB-231 breast
[42] = system: MCF7 breast
[43] = system: HT29 colon
[44] = system: COLO 205 colon
[45] = system: SK-MEL-2 melanoma
[46] = system: 786-0 renal
[47] = system: HCT-15 colon
[48] = system: CAKI-1 renal
[49] = system: OVCAR-5 ovarian
[50] = system: NCI/ADR-RES ovarian
[51] = system: UACC-257 melanoma
[52] = system: NCI-H522 lung
[53] = system: LOX IMVI melanoma
[54] = system: KM12 colon
[55] = system: NCI-H226 lung
[56] = system: SF-295 CNS
[57] = system: CCRF-CEM leukemia
[58] = system: A498 renal
[59] = system: HOP-92 NSCLC

`CC(C)(C)OC(=O)NCCCCC(NC(=O)OCc1ccccc1)C(N)=O` (stereo not drawn) was tested, and the TGI [1] was greater than 100 µM, the TGI [2] was greater than 100 µM and the TGI [3] was greater than 100 µM. For the same compound, the TGI [4] was greater than 100 µM, the TGI [5] was greater than 100 µM and the TGI [6] was greater than 100 µM. It also gave a TGI [7] greater than 100 µM, a TGI [8] greater than 100 µM and a TGI [9] greater than 100 µM. For the same compound, the TGI [10] was greater than 100 µM, the TGI [11] was greater than 100 µM and the TGI [12] was greater than 100 µM. It also gave a TGI [13] greater than 100 µM, a TGI [14] greater than 100 µM and a TGI [15] greater than 100 µM. It also gave a TGI [16] greater than 100 µM, a TGI [17] greater than 100 µM and a TGI [18] greater than 100 µM. For the same compound, the TGI [19] was greater than 100 µM, the TGI [20] was greater than 100 µM and the TGI [21] was greater than 100 µM. It also gave a TGI [22] greater than 100 µM, a TGI [23] greater than 100 µM and a TGI [24] greater than 100 µM. For the same compound, the TGI [25] was greater than 100 µM, the TGI [26] was greater than 100 µM and the TGI [27] was greater than 100 µM. It also gave a TGI [28] greater than 100 µM, a TGI [29] greater than 100 µM and a TGI [30] greater than 100 µM. The TGI [31] was greater than 100 µM, the TGI [32] was greater than 100 µM and the TGI [33] was greater than 100 µM. It also gave a TGI [34] greater than 100 µM, a TGI [35] greater than 100 µM and a TGI [36] greater than 100 µM. It also gave a TGI [37] greater than 100 µM, a TGI [38] greater than 100 µM and a TGI [39] greater than 100 µM. The TGI [40] was greater than 100 µM, the TGI [41] was greater than 100 µM and the TGI [42] was greater than 100 µM. It also gave a TGI [43] greater than 100 µM, a TGI [44] greater than 100 µM and a TGI [45] greater than 100 µM. It also gave a TGI [46] greater than 100 µM, a TGI [47] greater than 100 µM and a TGI [48] greater than 100 µM. The TGI [49] was greater than 100 µM, the TGI [50] was greater than 100 µM and the TGI [51] was greater than 100 µM. The TGI [52] was greater than 100 µM, the TGI [53] was greater than 100 µM and the TGI [54] was greater than 100 µM. The TGI [55] was greater than 100 µM, the TGI [56] was greater than 100 µM and the TGI [57] was greater than 100 µM.

For `CC(=O)OCC1OC(N2C(=O)/C(=C\c3ccc(Cl)cc3)C(N)=Nc3ccccc32)C(OC(C)=O)C(OC(C)=O)C1OC(C)=O` (stereo not drawn), the TGI [1] was 26.7 µM, the TGI [2] was 68.4 µM and the TGI [3] was greater than 100 µM. It also gave a TGI [4] greater than 100 µM, a TGI [5] greater than 100 µM and a TGI [6] of 27.9 µM. The TGI [7] was greater than 100 µM, the TGI [8] was 42 µM and the TGI [9] was 71.2 µM. The TGI [10] was 30.2 µM, the TGI [11] was 59.8 µM and the TGI [12] was 85.7 µM. For the same compound, the TGI [13] was greater than 100 µM, the TGI [14] was 40.8 µM and the TGI [15] was 58.8 µM. For the same compound, the TGI [16] was greater than 100 µM, the TGI [17] was 36.5 µM and the TGI [18] was 66.4 µM. It also gave a TGI [19] of 74.4 µM, a TGI [20] of 88.2 µM and a TGI [21] greater than 100 µM. The TGI [22] was 13.8 µM, the TGI [58] was greater than 100 µM and the TGI [23] was 27.1 µM. It also gave a TGI [24] greater than 100 µM, a TGI [25] of 30.5 µM and a TGI [26] of 39.1 µM. The TGI [27] was 32.6 µM, the TGI [59] was 45.2 µM and the TGI [28] was 51.1 µM. For the same compound, the TGI [29] was 33.1 µM, the TGI [30] was 27 µM and the TGI [31] was 30.7 µM. The TGI [32] was 37.9 µM, the TGI [33] was 37.4 µM and the TGI [34] was greater than 100 µM. For the same compound, the TGI [35] was greater than 100 µM, the TGI [36] was 68.7 µM and the TGI [37] was greater than 100 µM. For the same compound, the TGI [38] was 45.7 µM, the TGI [39] was 63.4 µM and the TGI [40] was greater than 100 µM. It also gave a TGI [41] of 49.9 µM, a TGI [42] of 33.1 µM and a TGI [43] of 70.2 µM. It also gave a TGI [44] of 29.8 µM, a TGI [45] of 74.6 µM and a TGI [46] of 43.6 µM. For the same compound, the TGI [47] was 59.2 µM, the TGI [48] was greater than 100 µM and the TGI [49] was greater than 100 µM. The TGI [50] was greater than 100 µM, the TGI [51] was 66.6 µM and the TGI [53] was 39.2 µM. It also gave a TGI [54] of 39.5 µM and a TGI [56] greater than 100 µM.

`c1cc(-c2cnc(-c3ccc4c(c3)CCCO4)o2)ccn1` showed a TGI [1] of 27.6 µM, a TGI [2] of 30.6 µM and a TGI [3] of 31.7 µM. For the same compound, the TGI [5] was 51.5 µM, the TGI [6] was 43.7 µM and the TGI [7] was 29.1 µM. It also gave a TGI [8] of 33.2 µM, a TGI [9] of 32.2 µM and a TGI [10] of 31.6 µM. It also gave a TGI [11] of 24.4 µM, a TGI [12] of 30.1 µM and a TGI [14] of 21.8 µM. For the same compound, the TGI [15] was 25.3 µM, the TGI [16] was 57.3 µM and the TGI [18] was 42.3 µM. The TGI [19] was 25.2 µM, the TGI [20] was 42.1 µM and the TGI [21] was 40.9 µM. The TGI [22] was 23.6 µM, the TGI [58] was 25.8 µM and the TGI [23] was 25.4 µM. It also gave a TGI [24] of 46.4 µM, a TGI [25] of 78.5 µM and a TGI [26] of 47.2 µM. For the same compound, the TGI [27] was 33.5 µM, the TGI [59] was 49.4 µM and the TGI [28] was 13.4 µM. For the same compound, the TGI [29] was 22.8 µM, the TGI [30] was 22.2 µM and the TGI [31] was 28.3 µM. For the same compound, the TGI [32] was 27.8 µM, the TGI [33] was 33 µM and the TGI [34] was 40.5 µM. For the same compound, the TGI [35] was 42.2 µM, the TGI [36] was 30.2 µM and the TGI [37] was 21.9 µM. The TGI [38] was 37.9 µM, the TGI [39] was 36.5 µM and the TGI [40] was 24.8 µM. The TGI [41] was 41 µM, the TGI [42] was 28.7 µM and the TGI [43] was 41.3 µM. It also gave a TGI [44] of 33.1 µM, a TGI [45] of 24.8 µM and a TGI [46] of 53 µM. For the same compound, the TGI [47] was 31.6 µM, the TGI [48] was 41.5 µM and the TGI [49] was 44.5 µM. The TGI [50] was 41.3 µM, the TGI [51] was 28.8 µM and the TGI [52] was 23.4 µM. The TGI [53] was 29.7 µM, the TGI [55] was 31.7 µM and the TGI [56] was 37.4 µM. It also gave a TGI [57] of 29.7 µM.
